The text below walks through data of PubChem BioAssay AID1996.

In brackets after ≈: the same amount, converted by molar mass.

For this series the following is noted: buffer; pH 7.4; 200.0 µM.
As for `COc1ccc(C(=O)NC(C)CCc2ccccc2)c(O)c1` (stereo not given), the kinetic solubility was determined as 15.2 µg/mL (≈ 50.8 µM). Then `COc1ccccc1CN(C)C(=O)CSCC(=O)Nc1ccccc1F`, with > 56.5 µg/mL. The value for `CC1CCCCC1NC(=O)Cn1cnc2c1c(=O)n(C)c(=O)n2C` (stereo not given) was > 50 µg/mL; that for `O=C1C2CC(O)CN2C(=S)N1Cc1ccccc1` (stereo not given) was > 39.3 µg/mL; that for `CC(C)c1ccccc1NC(=O)Nc1ccc(F)cc1F` was 2.7 µg/mL (≈ 9.3 µM). The value for `CSc1nc(C)nc(C2CC2)c1C#N` was 1.2 µg/mL (≈ 5.85 µM); that for `O=C(NCC1CCCN(C2Cc3ccccc3C2)C1)c1cccs1` (stereo not given) was 40.1 µg/mL (≈ 118 µM). Turning to `COc1ccc(Sc2nc(-c3ccccc3)ncc2OC)cc1`, the kinetic solubility was < 0.3 µg/mL.

The compound `O=C(O)C1C2CCC(O2)C1C(=O)Nc1ccc(F)c(F)c1` (stereo not given) displayed a solubility (kinetic) of 40.5 µg/mL (≈ 136 µM).

With `CCCOc1cccc(C(=O)NCCNC(=O)c2ccccn2)c1`, the kinetic solubility was > 49.1 µg/mL. With `CC1CCCCC1NC1=NCCCS1` (stereo not given), the kinetic solubility is > 31.9 µg/mL.

As to `C=CCn1cccc(C(=O)Nc2ccc(OC)c(Cl)c2)c1=O`, the solubility (kinetic) is 1.5 µg/mL (≈ 4.71 µM). Then `Cc1ccc(N(C)S(=O)(=O)c2csc(C(N)=O)c2)cc1C`, with 43.8 µg/mL (≈ 135 µM). `Cn1c(=O)c(C(=O)c2ccccc2)c(O)c2ccccc21`: the kinetic solubility was 38.8 µg/mL (≈ 139 µM). Take `CCCc1cc(C(=O)Nc2ccc(C(=O)OC)cc2)cs1`: the solubility (kinetic) was < 0.6 µg/mL. The value for `COC(=O)c1sc(NC(=O)c2c(C)noc2C)nc1C` was > 44.3 µg/mL; that for `CCCCC(=O)Nc1cccc(C(C)O)c1` (stereo not given) was > 33.2 µg/mL. Then `Cc1ccc(S(=O)(=O)Nc2ccc3c(c2)nc(C)n3C)cc1`, with 0.8 µg/mL (≈ 2.54 µM).

In the case of `CC(=O)c1cccc(Nc2c([N+](=O)[O-])c(=O)oc3ccccc23)c1`, the solubility (kinetic) turned out to be 0.9 µg/mL (≈ 2.78 µM).

As for `Cc1oc(CC(C)C)cc1C(=O)NCCCC(=O)O`, the solubility (kinetic) was > 40.1 µg/mL.

For `CC(C)(C)c1ncc(S(=O)(=O)c2ccc(C(F)(F)F)cn2)c(N)n1`, the solubility (kinetic) was 1.4 µg/mL (≈ 3.88 µM). Turning to `O=C(Nc1cccc(F)c1)Nc1ccc(Cl)cn1`, the kinetic solubility was < 0.2 µg/mL. Regarding `COCCN(CCOC)C(=O)Nc1ccc(Cl)cc1`, the solubility (kinetic) is > 43 µg/mL. Then `C(=C\c1nc(-c2cccnc2)no1)/c1ccccc1`, with 3.4 µg/mL (≈ 13.6 µM). Then `CCCCS(=O)(=O)N1CCCC(C(=O)NCC2CCCO2)C1` (stereo not given), with 41.1 µg/mL (≈ 124 µM); and `CN(C)/C=N/S(=O)(=O)c1ccc(Cl)c(Cl)c1`, with > 42.2 µg/mL; and `Cc1ccccc1CNc1ncnc2cc(Cl)ccc12`, with 0.5 µg/mL (≈ 1.76 µM). Then `O=S(=O)(NC1CCCC1)c1cc(F)ccc1F`, with > 39.2 µg/mL; and `Cc1cccc(NC(=O)CN2C(=O)NC3(CCCC3)C2=O)n1`, with > 45.3 µg/mL. Consider `CC(C)On1c(SCC(=O)N(C)C)nc2ccccc2c1=O`, for which the kinetic solubility was > 48.2 µg/mL. Then `CCN(CC(=O)N1CCCC1)S(=O)(=O)c1ccc(OC)cc1`, with 44.7 µg/mL (≈ 137 µM); and `Cc1ccc(CNC(=O)c2c(-c3ccccc3Cl)noc2C)cc1`, with 42.6 µg/mL (≈ 125 µM). The value for `CC(C)(C)CC(=O)NC(=S)NCc1ccccc1` was 1.7 µg/mL (≈ 6.43 µM); that for `Cc1noc(C)c1C(=O)OCC(=O)Nc1ccc(N2CCOCC2)cc1` was 7.6 µg/mL (≈ 21.1 µM); that for `COc1ccc(S(=O)(=O)NCCc2ccncc2)cc1` was 40.7 µg/mL (≈ 139 µM). Turning to `Cc1ccc2[nH]c(C(=O)Nc3ccc(F)cc3)cc2c1`, the kinetic solubility was < 0.3 µg/mL. `C/C(=N\n1c(C)nc2ccccc2c1=O)c1ccc(N)cc1`: the solubility (kinetic) is > 43.9 µg/mL. The value for `CCc1ccc2oc(C(=O)N3CCN(C)CC3)cc(=O)c2c1` was > 45.1 µg/mL; that for `CC(=O)Oc1ccccc1-n1c(C)nc(=O)c(-c2ccccc2)c1C` was 48.9 µg/mL (≈ 146 µM); that for `Cc1ccccc1NC(=O)CSc1nc2scc(C)c2c(=O)[nH]1` was 1.4 µg/mL (≈ 4.05 µM). Then `COc1ccc(NC(C)=O)cc1C#N`, with 24.5 µg/mL (≈ 129 µM); and `O=C1CN=C(c2ccccc2)c2c(sc3c2CCCC3)N1`, with 36.3 µg/mL (≈ 122 µM); and `CSc1ccccc1NC(=O)CN(C)CC(=O)c1[nH]c(C)c(C(C)=O)c1C`, with 6.7 µg/mL (≈ 17.3 µM). Then `O=C(Cn1c(=O)sc2ccccc21)Nc1ccc(O)cc1`, with > 45 µg/mL; and `COc1ccc(S(=O)(=O)N2CCCCC2C)cc1` (stereo not given), with > 40.4 µg/mL; and `CC(=O)Nc1ccc(S(=O)(=O)N(C)C2CCN(C)CC2)cc1`, with > 48.8 µg/mL. `Cc1cc(C)nc(NC(=S)NC(=O)c2ccccc2)n1` returned a solubility (kinetic) of 5.8 µg/mL (≈ 20.3 µM). The value for `COc1ccc(NC(=O)C2(c3ccccc3)CCCC2)cc1` was 2.6 µg/mL (≈ 8.8 µM). The value for `N#Cc1c(CSCC(=O)O)cc(=O)n2c1[nH]c1ccccc12` was 46.9 µg/mL (≈ 150 µM); that for `COc1ccc(C(CC(=O)N2CCCC2)c2ccc(F)cc2)cc1` (stereo not given) was 44.3 µg/mL (≈ 135 µM). Then `COc1ccc(CNC(=O)CCN2C(=S)NC(C)(C)CC2C)cc1` (stereo not given), with > 52.4 µg/mL. Consider `Cn1c(SCC(N)=O)nnc1-c1ccc(C(C)(C)C)cc1`, for which the solubility (kinetic) is > 45.7 µg/mL. The value for `COc1ccc(CSC2=NCCN2)cc1Br` was 30.9 µg/mL (≈ 103 µM); that for `CCOc1ccccc1NC(=O)N1CCCC1C(=O)NCc1ccco1` (stereo not given) was 48.2 µg/mL (≈ 135 µM).

In turn, `COc1ccccc1-n1c(C)c(C(C)=O)c2cc(O)ccc21` had a solubility (kinetic) of 3 µg/mL (≈ 10.2 µM). The value for `CC(CN1CCN(Cc2ccccc2)CC1)c1ccccc1.O=C(O)C(=O)O` (stereo not given) was 7.2 µg/mL. Then `CN1C(=O)N(c2ccc(Cl)cc2)C(C)(O)CC1(C)C` (stereo not given), with > 42.4 µg/mL; and `CN(C(=O)Cc1c(C(=O)O)n(C)c2ccccc12)c1ccc(Cl)cc1`, with > 53.5 µg/mL; and `CCN1C(=O)CC(N2CCN(c3cccc(OC)c3)CC2)C1=O` (stereo not given), with > 47.6 µg/mL. The value for `O=C1NC(c2ccc(Br)cc2)Nc2ccccc21` (stereo not given) was 9 µg/mL (≈ 29.7 µM); that for `CC1(c2cccc(Br)c2)NC(=O)NC1=O` (stereo not given) was > 40.4 µg/mL; that for `CCN(CC)C(=O)Cc1c(OC)ccc2cc(Br)ccc12` was 17.7 µg/mL (≈ 50.5 µM). Regarding `Cc1cccc(Nc2nc(N)nc(-c3oc4ccccc4c3C)n2)c1`, the kinetic solubility is < 0.1 µg/mL. The value for `O=S(=O)(/N=C(/Nc1cccnc1)c1ccccc1)c1ccc(F)cc1F` was > 56 µg/mL; that for `Cc1nc(C)c(Oc2cccc(C(F)(F)F)c2)c(=O)[nH]1` was 38.2 µg/mL (≈ 134 µM). For `O=C(Nc1ccccc1C(=O)NC1CC1)c1ccc([N+](=O)[O-])o1`, the solubility (kinetic) is > 47.3 µg/mL. Then `O=C(N/N=C/c1ccc2nccnc2c1)c1ccncc1`, with > 41.6 µg/mL.

Consider `Nc1cc(Cl)ccc1C(=O)OCC(=O)NC1CCCCC1`, for which the kinetic solubility was determined as 0.5 µg/mL (≈ 1.61 µM). Then `Fc1cccc(/C=N/Nc2nccnc2Cl)c1`, with > 37.6 µg/mL; and `O=C(NCc1ccco1)C1CC(c2ccc(Cl)cc2)=NO1` (stereo not given), with 2.9 µg/mL (≈ 9.52 µM). Then `COC(=O)c1ccc(S(=O)(=O)N2CCCN(Cc3ccc(F)cc3)CC2)n1C`, with > 61.4 µg/mL; and `COc1ccccc1N(CC(=O)Nc1ccc(C)cc1Cl)S(=O)(=O)c1cccs1`, with 6.9 µg/mL (≈ 15.3 µM). `COc1ccc(N2CC(C(=O)N3CCOCC3)CC2=O)cc1` (stereo not given): the kinetic solubility is > 45.7 µg/mL. Then `CC(NC(=O)COc1ccccc1Cl)c1ccccc1` (stereo not given), with > 43.5 µg/mL; and `Cc1cccn2c(=O)c3cc(C(=O)NC4CCCCC4)c(=N)n(CCN4CCOCC4)c3nc12`, with 52.2 µg/mL (≈ 112 µM). The value for `N=c1oc2cc(O)ccc2cc1C(=O)Nc1ccc(Cl)cc1` was 1.1 µg/mL (≈ 3.5 µM). The value for `O=C(N[C@@H](Cc1ccccc1)C(=O)OCc1ccccc1)c1ccco1` was 32.4 µg/mL (≈ 92.7 µM); that for `CCC(C)[C@H](NC(=O)N1CCC(Cc2ccccc2)CC1)C(=O)O` (stereo not given in full) was > 49.9 µg/mL. On to `CCCCN(C)Cc1cc(=O)oc2ccc3ccccc3c12`, for which the solubility (kinetic) is 1.8 µg/mL (≈ 6.09 µM).

`Cc1ccc(NC(=O)c2ccccn2)c(Br)c1`: the kinetic solubility is < 0.3 µg/mL.

Compound `COc1cc(/C=C/C(=O)Nc2ccc(OC)c(S(=O)(=O)N3CCOCC3)c2)ccc1OC(F)F` displayed a solubility (kinetic) of 2.6 µg/mL (≈ 5.22 µM).

As to `Cc1ccsc1C(=O)NNC(=S)NC1CCCCC1`, the kinetic solubility was > 44.6 µg/mL. Then `CCOc1ncccc1C(=O)Nc1nc(C(C)(C)C)cs1`, with 0.6 µg/mL (≈ 1.96 µM); and `COC(=O)[C@@H](NC(=O)NC1CCCCC1C)C(C)C` (stereo not given in full), with > 40.6 µg/mL.

As for `O=C(O)CCc1[nH]c2ccccc2c1Sc1ccccc1`, the kinetic solubility is > 44.6 µg/mL. The value for `COc1ccccc1NC(=O)c1ccc(-c2ccccc2[N+](=O)[O-])o1` was 1.6 µg/mL (≈ 4.73 µM); that for `C=CCn1cnc2scc(-c3ccc(OC)cc3)c2c1=O` was 39 µg/mL (≈ 131 µM).

As to `C[C@H](NC(=O)c1ccco1)C(=O)Nc1cc(S(=O)(=O)N2CCCC2)ccc1OCC(F)(F)F`, the kinetic solubility was > 73.4 µg/mL. The value for `Cc1ccc(C(=O)NCCNC(=O)c2ccco2)cc1C` was 38.8 µg/mL (≈ 136 µM); that for `CC(NC(=O)Nc1ccccc1Cl)c1ccc2c(c1)OCO2` (stereo not given) was < 0.3 µg/mL; that for `Cc1[nH]c(=S)c(C#N)c(-c2ccco2)c1C(=O)N(C)C` was > 43.1 µg/mL. The value for `CCNC(=S)NNC(=O)CC(C)C` was > 30.5 µg/mL; that for `COC(=O)c1cc(C(=O)NC(C)C2CC3CCC2C3)cc([N+](=O)[O-])c1` (stereo not given) was 11 µg/mL (≈ 31.8 µM); that for `Cc1nccn1CC1CCc2c(c3ccccc3n2C)C1=O.Cl` (stereo not given) was 47.7 µg/mL. `O=C(NC1CCCCC1)Oc1ccccc1` registered a kinetic solubility of 18.3 µg/mL (≈ 83.5 µM).

Turning to `O=S(=O)(NCc1ccccc1)c1ccc(Br)s1`, the kinetic solubility turned out to be 21.3 µg/mL (≈ 64.1 µM). The solubility kinetic values of the last two compounds are within 1.5-fold of each other. `c1csc(-c2nc(-c3ccc(-c4ccon4)s3)no2)c1` displayed a kinetic solubility of 0.5 µg/mL (≈ 1.66 µM). The value for `O=C(Cc1ccc(O)cc1)N/N=C/c1cccnc1` was > 38.3 µg/mL; that for `NS(=O)(=O)c1ccc(NC(=O)C(=O)NCCC(=O)O)cc1` was > 47.3 µg/mL. The value for `CC1CCCC(NC(=O)c2ccncc2)C1C` (stereo not given) was > 34.8 µg/mL; that for `CCc1c(C(=O)Nc2ccccc2C(N)=O)csc1C` was 3.6 µg/mL (≈ 12.5 µM). The value for `CC(O)c1nc2ccccc2n1Cc1ccccc1` (stereo not given) was 35.6 µg/mL (≈ 141 µM); that for `Cc1ncc([N+](=O)[O-])n1CC(=O)Nc1ccc(Cl)cc1` was 5.7 µg/mL (≈ 19.3 µM); that for `O=[N+]([O-])c1ccc(Cl)c(NC2=NCCCCC2)c1` was > 40.2 µg/mL. `CCOc1ccccc1NC(=S)NCc1cccn1C` yielded a solubility (kinetic) of 38.5 µg/mL (≈ 133 µM).
